Each structure is given as a SMILES string.

One series can be described thus: Measurement of pKa value of the dyes (spectrophotometric titration). Type of series: physicochemical. The following applies: DMF/water (1/1), titration from pH 2 with NaOH, UV-vis inflection point. Here is the method:
The pKa values of the dyes can be determined by the following method. The dye is dissolved in a solution of a DMF/water (1/1) volume ratio to a final concentration of 2×10^−5 mol/l. After adjusting the resulting solution to pH 2, using 1.0 mol/l hydrochloric acid, the solution is titrated with aqueous 1.0 mol/l sodium hydroxide solution. Recording the change of the visible ultra-violet absorption spectrum, the inflection point can be determined by regression analysis.
In the case of `N#CC(/N=N/c1ccc(S(N)(=O)=O)cc1)C(=O)c1ccccc1` (stereo not drawn) [Dye 23], the pKa (usually the pH at which an ionisable group is half protonated) is reported as 5.8.

`CCSc1nsc(/N=N/c2cc(Cl)c(O)cc2Cl)n1` [Dye 26, reference compound] returned a pKa of 3.5.

In turn, `COCCOc1ccc(N=NC2C(=O)N(c3ccccc3)N=C2C(N)=O)cc1S(N)(=O)=O` (stereo not drawn) [Dye 21] had a pKa of 6.4.

Regarding `CCSc1nnc(/N=N/c2c(C(C)(C)C)nn3nc(C)[nH]c23)s1` [Dye 22], the pKa is recorded as 5.5.

`O=C(Nc1cc(/N=N/c2nc(-c3ccccc3)no2)c2ccccc2c1O)c1ccncc1` [Dye 2] came in with a pKa of 5.5.

In turn, `CC(=O)Nc1cc(/N=N/c2nc3ccccc3s2)ccc1O` [Dye 6] displayed a pKa of 6.2.

Compound `CNS(=O)(=O)c1ccc2nsc(/N=N/c3cc(NC(C)=O)c(O)c(NC(C)=O)c3)c2c1` [Dye 39, reference compound] registered a pKa of 3.9.

Compound `NS(=O)(=O)c1ccc2nsc(N=Nc3cc(Cl)c(O)cc3Cl)c2c1` [Dye 13] came in with a pKa of 4.7.

Consider `Cc1nsc(/N=N/c2cc(Cl)c(O)cc2Cl)n1` [Dye 30, reference compound], for which the pKa turned out to be 3.8.

Consider `CCSc1nnc(N=Nc2ccc(O)c3cccc(NS(C)(=O)=O)c23)s1` [Dye 8], for which the pKa is recorded as 4.4.

With `CCC(=O)Nc1cc(/N=N/c2nc(C)ns2)cc(Cl)c1O` [Dye 29, reference compound], the pKa is recorded as 3.3.

`Cc1nsc(/N=N/c2ccc(O)c(Cl)c2)n1` [Dye 31, reference compound] showed a pKa of 5.0.

`CC(=O)Nc1cc(/N=N/c2nncs2)ccc1O` [Dye 1] returned a pKa of 6.0.

`CCSc1nsc(/N=N/c2cc(Cl)c(O)c(NC(=O)CC)c2)n1` [Dye 25, reference compound] had a pKa of 3.0.

In the case of `CS(=O)(=O)Nc1cccc2c(O)ccc(N=Nc3nc4ccccc4s3)c12` [Dye 9], the pKa came to 6.1.

For `CC(=O)Nc1cc(N=Nc2nc(C)ns2)ccc1O` [Dye 32, reference compound], the pKa came to 5.2.

`CCc1nn2c(-c3ccc(OC)c(NS(C)(=O)=O)c3)n[nH]c2c1/N=N/c1nc(C(C)C)no1` [Dye 36, reference compound] gave a pKa of 5.2.

`Cc1nn2nc(C(C)(C)C)c(/N=N/c3cc(Cl)c(S(N)(=O)=O)cc3Cl)c2[nH]1` [Dye 24] gave a pKa of 5.9.

For `CS(=O)(=O)c1ccc(/N=N/c2ccc(O)c3ccccc23)c(C#N)c1` [Dye 3], the pKa was found to be 6.5.

Turning to `Oc1ccc(/N=N/c2nc3ccccc3s2)cc1Cl` [Dye 7], the pKa worked out at 5.9.

Compound `CCC(=O)Nc1cc(N=Nc2snc3ccc(S(N)(=O)=O)cc23)cc(Cl)c1O` [Dye 12] showed a pKa of 4.0.

Take `CCSc1nnc(/N=N/c2c(C(C)(C)C)nn3nc(C(C)C)[nH]c23)s1` [Dye 35, reference compound]: the pKa came to 4.7.

As for `CSc1nnc(/N=N/c2ccc(O)c(NC(C)=O)c2)s1` [Dye 5], the pKa came out at 6.1.

The same series, now with this note: DMF/water (1/1 v/v) solution, titration from pH 2 with NaOH, UV-vis inflection point, read-out: pKa.
In the case of `CS(=O)(=O)Nc1cccc2c(O)ccc(/N=N/c3snc4ccc(S(N)(=O)=O)cc34)c12` [Dye 10], the pKa was 5.

As to `CC(=O)Nc1cc(/N=N/c2snc3ccc(S(N)(=O)=O)cc23)c(Cl)c(Cl)c1O` [Dye 27, reference compound], the pKa was 3.

On to `CCC(=O)Nc1cc(/N=N/c2nccs2)cc(Cl)c1O` [Dye 28, reference compound], for which the pKa is 4.8.

On to `CC(=O)Nc1cc(/N=N/c2ccc(S(C)(=O)=O)cc2C#N)c2ccccc2c1O` [Dye 4], for which the pKa came out at 7.

For the origin of these results see patent US7198651B2, “Method of effecting a reversible color change of dyed hair” (Kao Corporation, priority 2003, dated 2007).
